Earlier results as cited in US20090182024A1, “EXTENDED RELEASE TABLET FORMULATION CONTAINING PRAMIPEXOLE OR A PHARMACEUTICALLY ACCEPTABLE SALT THEREOF” (BOEHRINGER INGELHEIM INTERNATIONAL GMBH, priority 2004, published 2009).
Structures can show the parent of a compound that is named as a salt.

Legend:
[1] = in vivo
[2] = not given; remark: listed apart in the source

Row | Structure (SMILES) | stability in solution (in solution) | stability in the solid state (solid state) | kinetics [1] | solubility in buffer media ([2]; between pH 2 and pH 7.4) | Water solubility ([2]; water)
1 | CCCN[C@H]1CCc2nc(N)sc2C1 [Pramipexole, (S)-2-amino-4,5,6,7-tetrahydro-6-(propylamino)benzothiazole] | light sensitive | very stable | linear kinetics | – | –
2 | CCCN[C@H]1CCc2nc(N)sc2C1 [Pramipexole dihydrochloride monohydrate, pramipexole dihydrochloride monohydrate] | – | – | – | above 10 mg/mL | more than 20 mg/mL
